The test system of the assay is mice. Description: phenyl-p-quinone writhing assay in mice (analgesia). In kind it is in vivo. The following applies: Mus musculus, sc, read-out: % Inhibition of Writhing; for inhibition in vivo at 20 mg/kg: 0.5 h.
Setting [1] is: 20 mg/kg subcutaneous, 30 minutes before injection of phenylquinone, mice.

Where a name gives a salt, the structure may show the parent alone. Read-outs that look alike come from different tables or passages of the source.

This passage reports inhibition in vivo results from patent US5500423A, “5,6-dihydro-4H-imidazo[4,5,1-ij]quinolines” (Hoechst-Roussel Pharmaceuticals Inc., priority 1994, dated 1996).

For `CC(=O)N1CCC(c2nc3cccc4c3n2CCC4)CC1` [1-Acetyl-4-[5,6-dihydro-4H-imidazo[4,5,1-ij]quinolin-2-yl]piperidine], the inhibition in vivo at 20 mg/kg under setting [1] is 51%.
`c1cc2c3c(c1)nc(C1CCNCC1)n3CCC2` [2-(4-Piperidinyl)-5,6-dihydro-4H-imidazo[4,5,1-ij]quinoline fumarate]: the inhibition in vivo at 20 mg/kg is 31%.
As to `Fc1ccc(C(CCCN2CCN(c3nc4cccc5c4n3CCC5)CC2)c2ccc(F)cc2)cc1` [4-[4,4-Bis(4-fluorophenyl)-butyl]-1-piperazinyl-5,6-dihydro-4H-imidazo[4,5,1-ij]quinoline], the inhibition in vivo at 20 mg/kg under setting [1] stood at 43%.
Turning to `c1cc2c3c(c1)nc(N1CCNCC1)n3CCC2` [5,6-Dihydro-2-(1-piperazinyl)-4H-imidazo[4,5,1-ij]quinoline dihydrochloride], the inhibition in vivo at 20 mg/kg turned out to be 57%.
`c1cc2c3c(c1)nc(N1CCCCC1)n3CCC2` [5,6-Dihydro-2-(1-piperidinyl)-4H-imidazo[4,5.1-ij]quinoline hydrochloride]: under setting [1], the inhibition in vivo at 20 mg/kg came to 68%.
Still for that read-out and setting: under `CN(C)C1CCN(c2nc3cccc4c3n2CCC4)CC1` [5,6-Dihydro-2-(4-dimethylamino-1-piperidinyl)-4H-imidazo[4,5,1-ij]quinolinefumarate] stands 48%; under `c1ccc(CCN2CCN(c3nc4cccc5c4n3CCC5)CC2)cc1` [5,6-Dihydro-2-(4-phenylethyl-1-piperazinyl)-4H-imidazo[4,5,1-ij]quinoline], 45%; under `c1cc2c3c(c1)nc(N1CCSCC1)n3CCC2` [5,6-Dihydro-2-(4-thiomorpholinyl)-4H-imidazo[4,5,1-ij]quinoline hydrochloride], 53%.
Still for that read-out and setting: under `CCOC(=O)N1CCN(c2nc3cccc4c3n2CCC4)CC1` [Ethyl-4-[5,6-dihydro-4H-imidazo[4,5,1-ij]quinolin-2-yl]-1-piperazinecarboxylate fumarate] stands 47%.
Turning to `CCC(=O)O[C@](Cc1ccccc1)(c1ccccc1)[C@H](C)CN(C)C` [propoxyphene, reference compound], the inhibition in vivo at 5 mg/kg was 19%.
